The record followed here is patent publication US20230293518A1 (Edgewise Therapeutics, Inc., priority 2020, published 2023).

Broadly, the IC50 is the midpoint of a concentration-inhibition curve.

The target in one test is skeletal myofibrils (myosin ATPase). The test can be described thus: Skeletal Myofibril ATPase Assay. Type of test: biochemical. Conditions: Table 4A. Here is the method: Example 12. Skeletal Myofibril ATPase Assay
Overview: Myosin ATPase activity is assessed by using a coupled reaction system, in which ADP generated by the myosin ATPase function is coupled to the disappearance of NADH through the pyruvate kinase/lactate dehydrogenase (PK-LDH) system. ATPase activity produces ADP, which is used as a substrate for PK to produce pyruvate and regenerate ATP. The pyruvate is then used as a substrate by LDH to oxidize NADH to NAD+. The rate of the reaction is monitored through the time-dependent disappearance of NADH using absorbance at 340 nm. Inhibition of ATPase activity by the assayed compounds is indicated by a reduced rate of NADH loss, relative to vehicle-treated controls, over the experimental time window. To assess the selectivity of the assayed compounds for skeletal myofibrils, the compounds are counter-screened in cardiac myofibrils.
Materials: The following stock solutions and reagents were used in the Skeletal Myofibril ATPase Assay:
Stock Solutions of pCa buffer. Combine PIPES, CaCl2, and EGTA solutions with 70 mL of water. Adjust pH to 7.0 and bring final volume to 100 mL.
Buffer A & Buffer B. Buffers were stored on ice until use.
Skeletal Myofibril ATPase Assay Procedure: BSA, ATP, NADH, PEP, and DTT solutions were thawed at room temperature, then transferred to ice. Pellet-frozen myofibrils were transferred with approximately twice the required volume into a sufficiently large tube and capped. Myofibrils were thawed by rolling in a water bath for approximately 15 min at room temperature and cooled on ice. Buffers A and B were prepared by adjusting volumes as necessary for required number of wells and stored on ice. 0.5 μL of the compounds to be assayed were added into wells. 25 μL of Buffer A was dispensed into the wells, followed by 25 μL of Buffer B. The wells were measured for absorbance at 340 nm, using a kinetic protocol in which the wells are read every 1.5-2 min for 45 min. The slope of the data was approximated by subtracting the minimum absorbance value from the maximum value for each well. This was accomplished either in the SoftMax Pro software or in a spreadsheet program such as Excel. Using GraphPad Prism 8.0, the data was normalized by assigning a value of 100% to the 1% DMSO vehicle wells. Typically, a normalized 0% value was simply assigned to a (Max−Min) value of 0. The normalized data was fit to a Four Parameter Logistic sigmoidal equation, constraining the bottom to be 0 or greater. Compounds of Table 1, 2, and 3 were tested and results of the assay appear in Tables 4a-4c. A=IC50 is less than or equal to 10 μM; B═IC50 is greater than 10 μM and less than 100 μM; C═IC50 is greater than 100 μM.
`CC(C)[C@@](C)(C#N)NC(=O)Cn1nc(-c2ccc(OC(F)F)nc2)ccc1=O` (stereo in doubt) [Compound I-34, N-(2-cyano-3-methylbutan-2-yl)-2-(3-(6-(difluoromethoxy)pyridin-3-yl)-6-oxopyridazin-1(6H)-yl)acetamide]: the IC50 lay within 10 to 100 µM.
The compound `CCNC(=O)Cn1nc(-c2cnc(Nc3ccc(Cl)cc3)nc2)ccc1=O` [Compound I-1, 2-(3-(2-((4-chlorophenyl)amino)pyrimidin-5-yl)-6-oxopyridazin-1(6H)-yl)-N-ethylacetamide] showed an IC50 of less than 10 µM.
Still for that read-out and setting: with `CCNC(=O)Cn1nc(-c2cnc(Nc3ccc(F)cc3)nc2)ccc1=O` [Compound I-2, N-ethyl-2-(3-(2-((4-fluorophenyl)amino)pyrimidin-5-yl)-6-oxopyridazin-1(6H)-yl)acetamide] the figure was less than 10 µM.
Still for that read-out and setting: with `O=C(Cn1nc(-c2ccc(OC(F)F)nc2)ccc1=O)NC1CCC1` [Compound I-4, N-cyclobutyl-2-(3-(6-(difluoromethoxy)pyridin-3-yl)-6-oxopyridazin-1(6H)-yl)acetamide] the figure was less than 10 µM; with `COc1ccc(-c2ccc(=O)n(CC(=O)NCc3ccccc3Cl)n2)cn1` [Compound I-5, N-(2-chlorobenzyl)-2-(3-(6-methoxypyridin-3-yl)-6-oxopyridazin-1(6H)-yl)acetamide], less than 10 µM.
Compound `CCNC(=O)Cn1nc(-c2ccc(N3CC(F)(F)C3)nc2)ccc1=O` [Compound I-6, 2-(3-(6-(3,3-difluoroazetidin-1-yl)pyridin-3-yl)-6-oxopyridazin-1(6H)-yl)-N-ethylacetamide] showed an IC50 of 10 to 100 µM.
Regarding `CCNC(=O)Cn1nc(-c2ccc(OC(F)F)nc2)ccc1=O` [Compound I-7, 2-[3-[6-(difluoromethoxy)pyridin-3-yl]-6-oxo-1,6-dihydropyridazin-1-yl]-N-ethylacetamide], the half-inhibitory concentration (IC50) is less than 10 µM.
Same read-out and setting: with `CCNC(=O)Cn1nc(-c2cnc(OCC(F)(F)F)nc2)ccc1=O` [Compound I-8, N-ethyl-2-(6-oxo-3-(2-(2,2,2-trifluoroethoxy)pyrimidin-5-yl)pyridazin-1(6H)-yl)acetamide] the figure was less than 10 µM; with `CCNC(=O)Cn1nc(-c2ccc(OCCC(F)(F)F)nc2)ccc1=O` [Compound I-10, N-ethyl-2-[6-oxo-3-[6-(3,3,3-trifluoropropoxy)pyridin-3-yl]-1,6-dihydropyridazin-1-yl]acetamide], 10 to 100 µM.
On the same count and under the same terms, with `O=C(Cn1nc(-c2ccc(OC(F)F)nc2)ccc1=O)NC12CC(C1)C2` [Compound I-11, N-(bicyclo[1.1.1]pentan-1-yl)-2-(3-(6-(difluoromethoxy)pyridin-3-yl)-6-oxopyridazin-1(6H)-yl)acetamide] the figure was 10 to 100 µM; with `CCNC(=O)Cn1nc(-c2ccc(C3CC3)nc2)ccc1=O` [Compound I-12, 2-(3-(6-cyclopropylpyridin-3-yl)-6-oxopyridazin-1(6H)-yl)-N-ethylacetamide], 10 to 100 µM; with `CCNC(=O)Cn1nc(-c2ccc(OCC(F)(F)F)nc2)ccc1=O` [Compound I-13, N-ethyl-2-(6-oxo-3-(6-(2,2,2-trifluoroethoxy)pyridin-3-yl)pyridazin-1(6H)-yl)acetamide], 10 to 100 µM.
Compound `CCNC(=O)Cn1nc(-c2ccc(OC(F)(F)F)nc2)ccc1=O` [Compound I-14, N-ethyl-2-(6-oxo-3-(6-(trifluoromethoxy)pyridin-3-yl)pyridazin-1(6H)-yl)acetamide] registered an IC50 of 10 to 100 µM.
Same read-out and setting: with `CC1(NC(=O)Cn2nc(-c3ccc(OC(F)F)nc3)ccc2=O)CCC1` [Compound I-15, 2-(3-(6-(difluoromethoxy)pyridin-3-yl)-6-oxopyridazin-1(6H)-yl)-N-(1-methylcyclobutyl) acetamide] the figure was 10 to 100 µM; with `COc1ccc(-c2ccc(=O)n(CC(=O)NC(C)C)n2)cn1` [Compound I-16, N-isopropyl-2-(3-(6-methoxypyridin-3-yl)-6-oxopyridazin-1(6H)-yl)acetamide], 10 to 100 µM; with `O=C(Cn1nc(-c2ccc(OC(F)F)nc2)ccc1=O)N[C@H]1CC12CC2` [Compound I-17, (S)-2-(3-(6-(difluoromethoxy)pyridin-3-yl)-6-oxopyridazin-1(6H)-yl)-N-(spiro[2.2]pentan-1-yl)acetamide], 10 to 100 µM.
`CCNC(=O)Cn1nc(-c2ccc(N3CC(C)(C)C3)nc2)ccc1=O` [Compound I-18, 2-(3-(6-(3,3-dimethylazetidin-1-yl)pyridin-3-yl)-6-oxopyridazin-1(6H)-yl)-N-ethylacetamide] came in with an IC50 of 10 to 100 µM.
Same read-out and setting: with `CCNC(=O)Cn1nc(-c2ccc(N3CCC34COC4)nc2)ccc1=O` [Compound I-19, 2-(3-(6-(6-oxa-1-azaspiro[3.3]heptan-1-yl)pyridin-3-yl)-6-oxopyridazin-1(6H)-yl)-N-ethylacetamide] the figure was 10 to 100 µM.
Still for that read-out and setting: with `CCC(C)(C)NC(=O)Cn1nc(-c2ccc(OC(F)F)nc2)ccc1=O` [Compound I-20, 2-(3-(6-(difluoromethoxy)pyridin-3-yl)-6-oxopyridazin-1(6H)-yl)-N-(tert-pentyl)acetamide] the figure was 10 to 100 µM; with `CCNC(=O)Cn1nc(-c2ccc(Oc3ccc(F)cc3)nc2)ccc1=O` [Compound I-21, N-ethyl-2-(3-(6-(4-fluorophenoxy)pyridin-3-yl)-6-oxopyridazin-1(6H)-yl)acetamide], 10 to 100 µM; with `CCNC(=O)Cn1nc(-c2ccc(OCC3COC3)nc2)ccc1=O` [Compound I-22, N-ethyl-2-(3-(6-(oxetan-3-ylmethoxy)pyridin-3-yl)-6-oxopyridazin-1(6H)-yl)acetamide], 10 to 100 µM.
Same read-out and setting: with `CCNC(=O)Cn1nc(-c2ccc(OCC3(F)COC3)nc2)ccc1=O` [Compound I-23, N-ethyl-2-(3-(6-((3-fluorooxetan-3-yl)methoxy)pyridin-3-yl)-6-oxopyridazin-1(6H)-yl)acetamide] the figure was 10 to 100 µM.
`CCNC(=O)Cn1nc(-c2ccc(OCC3(C)COC3)nc2)ccc1=O` [Compound I-24, N-ethyl-2-(3-(6-((3-methyloxetan-3-yl)methoxy)pyridin-3-yl)-6-oxopyridazin-1(6H)-yl)acetamide] gave an IC50 of 10 to 100 µM.
Same read-out and setting: with `CCNC(=O)Cn1nc(-c2ccc(OC3COC3)nc2)ccc1=O` [Compound I-25, N-ethyl-2-(3-(6-(oxetan-3-yloxy)pyridin-3-yl)-6-oxopyridazin-1(6H)-yl)acetamide] the figure was greater than 100 µM; with `CCNC(=O)Cn1nc(-c2ccc(OCCN(C)C)nc2)ccc1=O` [Compound I-26, 2-(3-(6-(2-(dimethylamino)ethoxy)pyridin-3-yl)-6-oxopyridazin-1(6H)-yl)-N-ethylacetamide], greater than 100 µM.
On the same count and under the same terms, with `CCNC(=O)Cn1nc(-c2ccc(OC(C)C)nc2)ccc1=O` [Compound I-27, N-ethyl-2-(3-(6-isopropoxypyridin-3-yl)-6-oxopyridazin-1(6H)-yl)acetamide] the figure was greater than 100 µM.
The compound `CCNC(=O)Cn1nc(-c2ccc(OCCCN(C)C)nc2)ccc1=O` [Compound I-28, 2-(3-(6-(3-(dimethylamino)propoxy)pyridin-3-yl)-6-oxopyridazin-1(6H)-yl)-N-ethylacetamide] displayed an IC50 greater than 100 µM.
Turning to `C[C@H](NC(=O)Cn1nc(-c2ccc(OC(F)F)nc2)ccc1=O)c1ccnn1C` [Compound I-29, (S)-2-(3-(6-(difluoromethoxy)pyridin-3-yl)-6-oxopyridazin-1(6H)-yl)-N-(1-(1-methyl-1H-pyrazol-5-yl)ethyl)acetamide], the IC50 is greater than 100 µM.
The compound `Cn1nccc1CNC(=O)Cn1nc(-c2ccc(OC(F)F)nc2)ccc1=O` [Compound I-30, 2-(3-(6-(difluoromethoxy)pyridin-3-yl)-6-oxopyridazin-1(6H)-yl)-N-((1-methyl-1H-pyrazol-5-yl)methyl)acetamide] came in with an IC50 greater than 100 µM.
`CCNC(=O)Cn1nc(-c2ccc(N3CC4(COC4)C3)nc2)ccc1=O` [Compound I-31, 2-(3-(6-(2-oxa-6-azaspiro[3.3]heptan-6-yl)pyridin-3-yl)-6-oxopyridazin-1(6H)-yl)-N-ethylacetamide]: the IC50 was greater than 100 µM.
On the same count and under the same terms, with `CCNC(=O)Cn1nc(-c2ccc(N3CC4(C3)CS(=O)(=O)C4)nc2)ccc1=O` [Compound I-32, 2-(3-(6-(2,2-dioxido-2-thia-6-azaspiro[3.3]heptan-6-yl)pyridin-3-yl)-6-oxopyridazin-1(6H)-yl)-N-ethylacetamide] the figure was greater than 100 µM.

The same test, now with this note: Table 4C.
Regarding `COc1ccc(-c2ccc(=O)n(CC(=O)NCc3cc(Cl)ccc3Cl)n2)cc1`, the IC50 is less than 10 µM.
